{"source": "patent US10438128B2", "about": "“Treatment of autoimmune and inflammatory diseases with the arsenic compounds AS2O3 and/or AS2O5 administered locally” (CENTRE NATIONAL DE LA RECHERCHE SCIENTIFIQUE (CNRS), priority 2013, dated 2019)", "key": {"MRL/lpr mice [1]": {"test_system": "MRL/lpr mice", "experiment": "Experiment 3: topical treatment of skin lesions in MRL/lpr mice with As2O5", "assay_type": "in vivo, mouse", "conditions": "0.5 mg/ml", "experimental": "Methods: The arsenic compound As2O5 is first dissolved at a high concentration (10 to 15 mg/ml) in distilled water until a clear and colorless solution is obtained. The solution is made sterile and free of particles by filtration on a 0.22 μm filter. The stock As2O5 solution thus obtained is then diluted in phosphate buffer or sterile physiological saline so as to obtain a concentration between 0.5 mg/ml for use in vivo. The stock solution of the arsenic compound As2O5 is preserved for 1 to 3 months in the refrigerator (4° C.), while the dilute solution is preserved for only 5 days at 4° C. and away from light.\nMRL/lpr mice (12 females and 12 males, 4 to 5 months of age) presenting severe lupus-type skin lesions, and for some cutaneous necrotizing vasculitis (time t0 in FIG. 6), were treated 5 times per week (Monday to Friday), for 8 weeks, by applying on the tissue lesions a compress (or a brush) impregnated with a solution of arsenic As2O5 at concentrations of 0.5 mg/ml. The control animals were mice of the same age and sex treated with the excipient."}, "MRL/lpr mice [2]": {"test_system": "MRL/lpr mice", "experiment": "Experiment 4: gradual decrease in number of weekly topical applications of As2O5", "assay_type": "in vivo, mouse", "experimental": "Methods: Severe skin lesions and cutaneous necrotizing vasculitis present at time t0 in 10 MRL/lpr mice 4 to 5 months in age were treated by applying a compress (or a brush) impregnated with a solution of the arsenic compound As2O5 at the concentration of 0.5 mg/ml."}, "MRL/lpr mice [3]": {"test_system": "MRL/lpr mice", "experiment": "Experiment 5: systemic (intraperitoneal) treatment of skin lesions in MRL/lpr mice with As2O5", "assay_type": "in vivo, mouse", "experimental": "Methods: MRL/lpr mice (6 females and 6 males, 4 to 5 months of age) presenting severe lupus-type skin lesions and cutaneous necrotizing vasculitis (time t0 FIGS. 8A and 8B) were treated 5 times per week (Monday to Friday), for 3 or 4 weeks, by intraperitoneal injections of 0.1 ml per 10 g of mouse of a solution of arsenic As2O5 at the concentration of 0.5 mg/ml. The control animals were mice of the same age and sex treated with the excipient."}, "MRL/lpr mice [4]": {"test_system": "MRL/lpr mice", "experiment": "Experiment 6: local treatment with suboptimal As2O3, As2O5 or the combination", "assay_type": "in vivo, mouse", "conditions": "suboptimal 0.12 mg/ml, 5 applications/week, 8 weeks", "experimental": "(§1) Methods: MRL/lpr mice (males and females) presenting severe lupus-type skin lesions and cutaneous necrotizing vasculitis were treated 5 times per week, for 8 weeks, by administering an aqueous solution containing either the arsenic compound As2O3 or the compound As2O5 or a mixture of both compounds As2O3+As2O5 or phosphate buffer (PBS) as negative control. Weakly effective doses (suboptimal) of As2O3 or As2O5 were voluntarily used. The arsenic compounds were administered in aqueous form using compresses or a brush for local treatment or an intraperitoneal injection for systemic treatment.\n(§2) At the conclusion of the treatment, the blood of each animal was sampled in order to quantify in the serum the levels of autoantibodies (anti-DNA, rheumatoid factor) and cytokines involved in the disease. Skin from the back of each animal was sampled for histological analysis and for analysis of the nature of the inflammatory infiltrate after isolating the cells using enzymatic methods, their counts under the microscope and their analyses by flow cytometry using fluorescent antibodies specific to leukocytes."}, "MRL/lpr mice [5]": {"test_system": "MRL/lpr mice", "experiment": "Experiment 6: systemic treatment with suboptimal As2O3, As2O5 or the combination", "assay_type": "in vivo, mouse", "conditions": "suboptimal 0.12 mg/ml, 5 times/week, 8 weeks", "experimental": "as §1, §2"}, "[6]": {"conditions": "cited from earlier work"}, "[7]": {"conditions": "ratio to As2O3; cited from earlier work"}, "MRL/lpr mice [8]": {"test_system": "MRL/lpr mice", "experiment": "Experiment 1: topical treatment of skin lesions in MRL/lpr mice with As2O3", "assay_type": "in vivo, mouse", "conditions": "0.5 mg/ml", "description": "MRL/lpr mice spontaneously develop disseminated lupus erythematosus, rheumatoid polyarthritis and Sjögren's syndrome characterized by dermatological, vascular, renal, pulmonary, articular and ocular damage due to lymphoid cell infiltrates. As in man, a strong sexual dimorphism is observed in MRL/lpr mice, the female mice presenting an earlier and more severe pathology than the males and dying earlier. The disease begins around the age of 8 weeks and causes the death of the mice, on average, at around 18 weeks of age for the females and 22 weeks for the males, the average lifespan of a normal mouse being 2 years.\nMethods: The solubility of arsenic compounds depends mainly on the pH and oxidation-reduction conditions and the temperature of the excipient. Since the arsenic compound As2O3 is poorly water soluble, it is first dissolved at a high concentration (60 to 70 mg/ml) in dilute alkaline solution (0.5 or 1 M) and gently heated until a clear and colorless solution is obtained. This solution is made free of particles and sterile by filtration on a 0.22 μm filter. The stock As2O3 solution thus obtained is then diluted in phosphate buffer or sterile physiological saline at the concentration varying from 0.5 mg/ml for use in vivo. The stock solution of the arsenic compound As2O3 is preserved from 1 to 3 months in the refrigerator (4° C.), whereas the dilute solution is preserved only 5 days at 4° C. and away from light.\nMRL/lpr mice (10 females and 10 males per group, aged 4 to 5 months) presenting severe lupus-type skin lesions, and for some cutaneous necrotizing vasculitis, were treated, 3 or 5 times per week depending on the experiment (from Monday to Friday), for 8 weeks, by application on the tissue lesions of a compress (or a brush) impregnated with arsenic As2O3 solution at concentrations of 0.5 mg/ml. The control animals were mice, of the same age and sex, treated with the excipient."}, "MRL/lpr mice [9]": {"test_system": "MRL/lpr mice", "experiment": "Experiment 2: gradual decrease in number of weekly topical applications of As2O3", "assay_type": "in vivo, mouse", "experimental": "Methods: Severe skin lesions and cutaneous necrotizing vasculitis present before treatment (time t0 in FIGS. 3, 4 and 5) in 15 4-month-old MRL/lpr mice were treated by applying a compress (or a brush) impregnated with a solution of the arsenic compound As2O3 at the concentration of 0.5 mg/ml. The number of applications per week varied from 2 to 5 depending on the experiment. Similarly, the total duration of the topical treatment varied from 7 to 32 weeks."}, "[10]": {"conditions": "20° C.; cited from earlier work"}}, "data": [{"molecule": "O=[As](=O)O[As](=O)=O", "note": "[As2O5, arsenic pentoxide]", "values": [{"measurement": "regrowth of hair (regeneration of lesioned skin tissue)", "setting": "MRL/lpr mice [1]", "result": "nearly complete regrowth of hair"}, {"measurement": "destruction of the skin in first week of treatment", "setting": "MRL/lpr mice [1]; 5 applications/week", "result": "ceased"}, {"measurement": "skin lesions after 4 weeks of treatment", "setting": "MRL/lpr mice [1]; 5 applications/week", "result": "almost disappeared"}, {"measurement": "time until destruction of skin tissue ceased", "setting": "MRL/lpr mice [1]; 5 applications/week", "result": "less than 2 weeks"}, {"measurement": "undesirable effect (nonspecific immunosuppression, tissue toxicity or premature death)", "setting": "MRL/lpr mice [1]; 8 weeks", "result": "no undesirable effect"}, {"measurement": "relapse or rebound of the disease at a single application per week", "setting": "MRL/lpr mice [2]; 5 weeks, 1 application/week", "result": "no relapse or rebound"}, {"measurement": "time to stop development of tissue lesions", "setting": "MRL/lpr mice [2]; front-line treatment, 5 applications/week", "result": "≤ 2", "unit": "weeks"}, {"measurement": "skin lesions after 2 further weeks at 2 applications per week", "setting": "MRL/lpr mice [2]; topical, 0.5 mg/ml", "result": "nearly disappeared"}, {"measurement": "inflammatory skin and vasculitis lesions after 2 weeks", "setting": "MRL/lpr mice [2]; topical, 0.5 mg/ml, 5 applications/week", "result": "ceased"}, {"measurement": "survival after the beginning of the treatment (majority of animals)", "setting": "MRL/lpr mice [2]; topical, schedule reduced from 5 to 1 application/week", "result": "more than 8 weeks"}, {"measurement": "regrowth of hair (regeneration of lesioned skin tissue)", "setting": "MRL/lpr mice [3]", "result": "nearly complete regrowth of hair"}, {"measurement": "undesirable effect (nonspecific immunosuppression, tissue toxicity or premature death)", "setting": "MRL/lpr mice [3]; 0.5 mg/ml solution", "result": "no undesirable effect"}, {"measurement": "destruction of skin after 3 or 4 weeks of treatment", "setting": "MRL/lpr mice [3]; 0.1 ml per 10 g of 0.5 mg/ml, 5 times/week", "result": "strongly regressed or even nearly disappeared"}, {"measurement": "cells in lymphocytic/inflammatory infiltrate of back skin (FIG. 9A)", "setting": "MRL/lpr mice [4]", "result": "still high number of cells"}, {"measurement": "inflammatory skin lesions (FIG. 10)", "setting": "MRL/lpr mice [4]", "result": "presence of severe skin lesions"}, {"measurement": "cells in lymphocytic/inflammatory infiltrate of back skin (FIG. 9B)", "setting": "MRL/lpr mice [5]", "result": "still high number of cells"}, {"measurement": "oral lethal dose for man", "setting": "[6]", "result": "5 to 50", "unit": "mg/kg"}, {"measurement": "toxicity relative to As2O3", "setting": "[7]", "result": "about 1/60"}]}, {"molecule": "arsenic trioxide [As2O3]", "values": [{"measurement": "regrowth of hair (skin tissue regeneration)", "setting": "MRL/lpr mice [8]", "result": "nearly complete regrowth of hair"}, {"measurement": "tissue lesions after 8 weeks with 3 weekly applications", "setting": "MRL/lpr mice [8]; 3 applications/week, less severe lesions, female mice", "result": "significant decrease"}, {"measurement": "tissue destruction after 2 weeks of treatment", "setting": "MRL/lpr mice [8]; 5 applications/week, 2 weeks", "result": "ceased and even regressed"}, {"measurement": "inflammatory skin lesions after 8 weeks of treatment", "setting": "MRL/lpr mice [8]; 5 applications/week, 8 weeks", "result": "nearly completely disappear"}, {"measurement": "undesirable effect (nonspecific immunosuppression, tissue toxicity or premature death)", "setting": "MRL/lpr mice [8]; 8 weeks", "result": "No undesirable effect"}, {"measurement": "relapse or rebound of the disease after reduced dosing schedule", "setting": "MRL/lpr mice [9]; 5/week for 4 weeks, then 3/week for 6 weeks, female mouse", "result": "no relapse or rebound"}, {"measurement": "skin damage after 7 weeks of topical treatment", "setting": "MRL/lpr mice [9]; 5 applications/week for 2 weeks, then 2/week for 5 weeks", "result": "decreased considerably"}, {"measurement": "age reached by treated mouse (euthanized)", "setting": "MRL/lpr mice [9]; female, 3.5 months old at t0, treated 32 weeks discontinuously", "result": 1, "unit": "year"}, {"measurement": "cells in lymphocytic/inflammatory infiltrate of back skin (FIG. 9A)", "setting": "MRL/lpr mice [4]", "result": "still high number of cells"}, {"measurement": "inflammatory skin lesions (FIG. 10)", "setting": "MRL/lpr mice [4]", "result": "presence of severe skin lesions"}, {"measurement": "cells in lymphocytic/inflammatory infiltrate of back skin (FIG. 9B)", "setting": "MRL/lpr mice [5]", "result": "still high number of cells"}, {"measurement": "solubility in water", "setting": "[10]", "result": 37, "unit": "mg/mL"}]}]}
